The record followed here is paper PMC3914206.

Holding throughout (format): binding
Conditions in all cases: Compound Concentration 10 µM

Test [1] addresses T1, panel of 442 kinases (Homo sapiens, UniProt P21802).
T1 construct: purchased KINOMEscan
The text has this: (§1) We assessed the selectivity of members of this scaffold using the KINOMEscan methodology across a near comprehensive panel of 442 kinases [[18,27]].

Test [2] addresses T2, panel of 442 kinases (Homo sapiens, UniProt Q13163).
T2 construct: purchased KINOMEscan
T2 sequence (Q13163 1-448): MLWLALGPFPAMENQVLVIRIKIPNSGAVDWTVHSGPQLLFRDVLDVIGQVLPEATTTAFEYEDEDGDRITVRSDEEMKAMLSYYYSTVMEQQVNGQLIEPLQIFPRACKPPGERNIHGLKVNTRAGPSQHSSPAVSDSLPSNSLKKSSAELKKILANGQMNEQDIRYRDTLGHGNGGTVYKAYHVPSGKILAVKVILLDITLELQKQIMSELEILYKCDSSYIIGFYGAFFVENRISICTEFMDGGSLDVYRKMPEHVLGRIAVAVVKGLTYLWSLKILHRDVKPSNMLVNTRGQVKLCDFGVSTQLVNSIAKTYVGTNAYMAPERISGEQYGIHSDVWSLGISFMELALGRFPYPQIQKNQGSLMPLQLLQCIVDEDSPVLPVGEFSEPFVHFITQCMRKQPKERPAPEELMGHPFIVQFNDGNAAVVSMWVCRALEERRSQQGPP
Source text: as §1

In test [3] the target is T3, panel of 442 kinases (Homo sapiens, UniProt Q9UBE8).
T3 construct: purchased KINOMEscan
T3 sequence (Q9UBE8 1-527): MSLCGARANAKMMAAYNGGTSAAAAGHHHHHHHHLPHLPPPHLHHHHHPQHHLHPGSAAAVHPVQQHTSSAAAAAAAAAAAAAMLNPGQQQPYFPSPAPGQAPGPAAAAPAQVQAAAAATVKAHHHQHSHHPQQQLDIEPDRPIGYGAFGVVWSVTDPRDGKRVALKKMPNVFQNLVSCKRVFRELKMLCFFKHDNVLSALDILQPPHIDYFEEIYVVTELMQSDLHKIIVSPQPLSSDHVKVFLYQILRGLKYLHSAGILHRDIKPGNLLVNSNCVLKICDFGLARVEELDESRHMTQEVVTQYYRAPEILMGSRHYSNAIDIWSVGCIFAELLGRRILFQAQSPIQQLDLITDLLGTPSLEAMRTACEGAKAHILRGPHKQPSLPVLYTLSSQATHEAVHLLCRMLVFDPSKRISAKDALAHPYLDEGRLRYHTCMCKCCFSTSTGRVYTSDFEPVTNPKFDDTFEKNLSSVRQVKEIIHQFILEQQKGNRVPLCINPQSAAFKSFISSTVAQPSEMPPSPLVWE
Source text: as §1

T1 sequence (P21802 22-821): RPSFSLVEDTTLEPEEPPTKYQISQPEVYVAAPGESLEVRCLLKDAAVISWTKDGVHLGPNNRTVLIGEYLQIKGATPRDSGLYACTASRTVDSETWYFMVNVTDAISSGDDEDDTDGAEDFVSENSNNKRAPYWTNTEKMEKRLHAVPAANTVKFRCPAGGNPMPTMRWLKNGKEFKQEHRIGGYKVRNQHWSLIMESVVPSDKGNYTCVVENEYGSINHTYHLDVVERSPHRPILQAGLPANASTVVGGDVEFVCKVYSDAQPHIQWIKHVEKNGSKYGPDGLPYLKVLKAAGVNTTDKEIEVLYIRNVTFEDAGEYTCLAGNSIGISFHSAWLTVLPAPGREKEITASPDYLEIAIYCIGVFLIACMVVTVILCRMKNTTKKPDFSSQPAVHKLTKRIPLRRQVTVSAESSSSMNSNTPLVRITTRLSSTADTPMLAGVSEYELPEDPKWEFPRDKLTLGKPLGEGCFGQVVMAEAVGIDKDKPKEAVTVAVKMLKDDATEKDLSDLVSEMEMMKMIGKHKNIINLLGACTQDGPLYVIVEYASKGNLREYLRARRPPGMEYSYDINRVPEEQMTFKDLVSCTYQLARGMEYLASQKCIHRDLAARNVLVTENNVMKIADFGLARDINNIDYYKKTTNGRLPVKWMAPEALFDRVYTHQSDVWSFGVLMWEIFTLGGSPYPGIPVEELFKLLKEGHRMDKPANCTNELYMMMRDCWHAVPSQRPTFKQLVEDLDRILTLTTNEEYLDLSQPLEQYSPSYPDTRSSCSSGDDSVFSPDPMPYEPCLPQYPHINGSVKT

In the case of `COc1cc(C(=O)N2CCC(N3CCN(C)CC3)CC2)ccc1Nc1ncc2c(n1)N(C1CCCC1)c1ccccc1C(=O)N2C` [Compound 25, 11-cyclopentyl-2-((2-methoxy-4-(4-(4-methylpiperazin-1-yl)piperidine-1-carbonyl)phenyl)amino)-5-methyl-5H-benzo[e]pyrimido[5,4-b][1,4]diazepin-6(11H)-one], the “KINOMEscan: FGFR2” value on panel of 442 kinases [1] came to 100. Further, at panel of 442 kinases [2], the “KINOMEscan: MEK5” value was determined as 83. Also, at panel of 442 kinases [3], the “KINOMEscan: NLK” value was found to be 63.

Turning to `COc1cc(C(=O)N2CCC(N3CCN(C)CC3)CC2)ccc1Nc1ncc2c(n1)N1CCc3cccc(c31)C(=O)N2C` [Compound 24], at panel of 442 kinases [1], the “KINOMEscan: FGFR2” value is reported as 83. For the same compound, the “KINOMEscan: MEK5” value at panel of 442 kinases [2] is given as 28. The “KINOMEscan: NLK” value at panel of 442 kinases [3] was determined as 68.

`COc1cc(C(=O)N2CCC(N3CCN(C)CC3)CC2)ccc1Nc1ncc2c(n1)N(C)c1ccccc1C(=O)N2C` [15 (LRRK2-IN-1)]: on panel of 442 kinases [1], the “KINOMEscan: FGFR2” value amounted to 95. In addition, the “KINOMEscan: MEK5” value at panel of 442 kinases [2] came out at 85. Further, the “KINOMEscan: NLK” value at panel of 442 kinases [3] is on record as 50.

`CCOc1cc(C(=O)N2CCC(N3CCN(C)CC3)CC2)ccc1Nc1ncc2c(n1)N(C1CCCC1)c1ccccc1C(=O)N2C` [Compound 26]: the “KINOMEscan: FGFR2” value at panel of 442 kinases [1] is 100. For the same compound, the “KINOMEscan: MEK5” value on panel of 442 kinases [2] is reported as 100. Also, the “KINOMEscan: NLK” value at panel of 442 kinases [3] amounted to 78.
